“Also recorded” adds a separate entry of the source.
Experiments:
PAI-1 = test: Multiplex ELISA of HMEC media: PAI-1; assay type: cell-based, human; conditions: compound-treated HMECs, 16 hours
Procedure: (§1) Dermal-derived Human Microvascular Endothelial Cells (HMEC) were maintained at 37° C./5% CO2 in MCDB-131 medium (Gibco/cat: 10372) supplemented with 10% FCS, L-Glutamine (Gibco/cat: 25030-032), 1 μl/ml Hydrocortisone (Sigma/cat: H0396), 10 ng/ml EGF (BD Biosciences 354001) and 1% Pen-Strep (Gibco/cat: 151040-148). The wells of a μ-slide angiogenesis plate (IBIDI Cat no: 81506) were coated with a layer of matrigel matrix (BD 356234) which was left to polymerize for 45 minutes at 37° C. HMECs were grown to 80% confluence, washed with DPBS (Invitrogen) and trypsinised using 2 ml TrypLE™ Express (1×) (Invitrogen). Cells were centrifuged following flask detachment at 1200 rpm for 4 minutes. The cell pellet was resuspended in 3 ml full media and a cell count was performed using a haemocytometer. 7.5×10^3 cells were pipetted into each matrigel coated well of the μ-slide angiogenesis plate and treated with either 0.1% DMSO or 1, 3.16 or 10 μM compound 4 or compound 18. The slide was kept at 37° C./5% CO2 during cell tube formation. After 16 hours, 50 μl of media was removed from each of the Ibidi wells and 25 μl of the media was run in each well of a Meso Scale Discovery (MD, USA) custom multiplex ELISA containing the following analytes: Ang-1, Ang-2, VEGF, bFGF, PAI-1, sICAM and sVCAM. The ELISA was run as per manufacturer's instructions.

sICAM-1 = test: Multiplex ELISA of HMEC media: sICAM-1; assay type: cell-based, human; conditions: compound-treated HMECs, 16 hours
Procedure: as §1

human HT29-Luc2 cells = test: Clonogenic assay of cell viability in HT29-Luc2; assay type: cell-based; conditions: 10 μM, 24-96 hours
Procedure: HT29-Luc2 CRC cells were maintained using McCoy's 5A (Gibco 36600-088) medium supplemented with 10% FBS (Gibco 10270-106) at 37° C./5% CO2. Cells were washed in DPBS and trypsinised using 2 ml TrypLE™ Express (1×) (Invitrogen). Cells were centrifuged following detachment at 1200 rpm for 4 minutes. The cell pellet was resuspended in full media and a cell count was performed using a haemocytometer. 1.5×10^3 cells were seeded per well of a 6 well plate and left to adhere for 24 hours. Cells were then treated with 10 μM of compound 4 or 18 for 24 hours. The drugs were then removed and cells were allowed to grow in fresh media for 10 days in total, clones were then fixed using 4% paraformaldehyde and stained by incubating with 0.5% crystal violet solution (Pro-Lab diagnostics PL.7000) at RT for 2 hours. Clones counting was performed using the ColCount™ system (Oxford Optronix).

[1] = test system: human retinal (ARPE-19) cells; test: MTT cell viability assay in ARPE-19; assay type: cell-based; conditions: 5, 10, 25, 50, 75 or 90 μM, 96 hours
Procedure: (§2) A 3-(4,5-dimethylthiozol-2-yl)-2,5-diphenyltetrazolium bromide (MTT) dye reduction assay was carried out to determine the cytotoxicity of each compound on either human microvascular endothelial cells (HMECs) or human retinal pigmented epithelium cells (ARPE-19). Cells were maintained in a 95% air and 5% CO2 atmosphere at 37° C. in Dulbecco modified Eagle medium (DMEM, Sigma Aldrich) with 10% fetal bovine serum, 2 mM Gibco® L-glutamine and 100 units/ml penicillin, 1 mg/ml streptomycin (Invitrogen) supplementation. On day 1, cells were trypsinized (Trypsin-EDTA 1×) and seeded 1.4×10^4 cells per well of a 96 well plate and incubated overnight. On day 2, cells were serum staved in DMEM with L-glutamine and penicillin-streptomycin supplementation for 24 h. On day 3, cells were drug treated for 24 h (HMECs) or 96 h (ARPE-19 cells) with 0.1% DMSO or 10 μM to 90 μM of each compound 4, 8, 15, 18 or 20, with 4 replicate wells of each compound. After 24-96 h, cells were incubated with […] 5 mg/ml MTT labelling Reagent (Roche) for 2 h. Subsequently, when purple formazan crystals formed cells were incubated with 1× solubilisation solution (Roche) for 4 h and absorbance read at 570 nm using a microplate reader.

bFGF = test: Multiplex ELISA of HMEC media: bFGF; assay type: cell-based, human; conditions: compound-treated HMECs, 16 hours
Procedure: as §1

[2] = test system: intersegmental vasculature in zebrafish; test: Quantification of intersegmental vessel number in zebrafish; assay type: in vivo; conditions: 10 μM; zebrafish embryos treated 6 hpf to 48 hpf
Procedure: At 6 hours post fertilisation, 5 embryos per well were placed in 400 μL of embryo medium/0.1% DMSO and incubated with 10 μM compound at 28° C. on a 14 h light/10 h dark cycle. At 48 hpf larvae were manually dechorionated, euthanised, and fixed in 4% PFA at 4° C. overnight before analysis. The larvae were then washed with PBS and transferred to depression slides for observation under epi-fluorescence in an Olympus SZX16 fluorescent microscope. The number of intersegmental vessels was counted and the average number was graphed for each drug.
All experimental protocols were carried out as per example 1 and 2. Briefly, zebrafish larvae were treated with 10 μM of AT-051/41206012 (chemical name 2-[2-(2-methoxyphenyl)ethenyl]pyrazine) purchased from Specs (The Netherlands). At 6 or 48 hours post fertilisation (hpf), 5 embryos per well were placed in 400 μl of Embryo Medium/0.1% DMSO and incubated with 10 μM AT-051/41206012 at 28° C. on a 14 h light/10 h dark cycle. Larvae were treated from 6-48 hpf (intersegmental vessel study) or from 48 to 120 hpf (primary hyaloid vessel study). At the end of the study, larvae were euthanized and fixed in 4% PFA at 4° C. overnight before analysis.
The number of intersegmental vessels was counted and the average number was graphed for each drug. Right lenses were dissected from the larvae and transferred to depression slides for observation and the number of primary hyaloid vessels radiating from the back of the lens (3-4 main branches at 5 dpf in controls and previously described), was counted and the average number was graphed for each drug.

Ang-1 = test: Multiplex ELISA of HMEC media: Ang-1; assay type: cell-based, human; conditions: compound-treated HMECs, 16 hours
Procedure: as §1

[3] = test system: human endothelial (HMEC) cells; test: MTT cell viability assay in HMEC; assay type: cell-based; conditions: 10 μM, 24 hours
Procedure: as §2

SMILES | expression of PAI-1 (PAI-1; hydrochloride) | expression of sICAM-1 (sICAM-1) | cell viability in a clonogenic assay (human HT29-Luc2 cells) | cell viability (MTT assay) [1] | expression of bFGF (bFGF) | inhibition of developmental angiogenesis of intersegmental vessels (number of intersegmental vessels) [2] | expression of Ang-1 (Ang-1) | cell viability (MTT assay) [3] | expression of PAI-1 (PAI-1)
Cl.Oc1ccccc1/C=C/c1cnccn1 [Compound 4, (E)-2-[2-(Pyrazin-2-yl)vinyl]phenol hydrochloride] | significantly reduce; also recorded: reduce expression of Ang-2 and PAI-1 in human endothelial microvascular cells in a statistically significant manner | not significantly different to control-treated HMECs | does not affect cell viability | does not affect cell viability | not significantly different to control-treated HMECs | inhibit developmental angiogenesis of zebrafish intersegmental vessels in a statistically significant manner | not significantly different to control-treated HMECs | does not affect cell viability | –
Oc1ccccc1C#Cc1cnccn1 [Compound 18, 2-[2-(Pyrazin-2-yl)ethynyl]phenol] | – | not significantly different to control-treated HMECs | does not affect cell viability | does not affect cell viability | not significantly different to control-treated HMECs | inhibit developmental angiogenesis of zebrafish intersegmental vessels in a statistically significant manner | not significantly different to control-treated HMECs | does not affect cell viability | significantly reduce; also recorded: reduce expression of Ang-2 and PAI-1 in human endothelial microvascular cells in a statistically significant manner

From patent US9975860B2, “Anti-angiogenic compounds” (UNIVERSITY COLLEGE DUBLIN—NATIONAL UNIVERSITY OF IRELAND, …, priority 2014, dated 2018)
